In US20090170860A1, “Use of PARP-1 Inhibitors” (PHARMA MAR, S.A., SOCIEDAD UNIPERSONAL, priority 2005, published 2009):
Where two headings read alike, the source gives them in different places.

How the values were obtained:
[1] = test system: PARP-1 +/+ and −/− mouse embryonic fibroblasts (MEFs); test: MTS cytotoxicity assay in PARP-1 +/+ and −/− MEFs; format: cell-based; conditions: PARP-1 −/− versus +/+ MEFs, 72 hours after treatment
Method: PARP-1 +/+and −/− mouse embryonic fibroblasts (MEFs) were seeded into 96-well plates at a density of 5,000 cells/well. After 24 hours, cells were treated with serially diluted concentrations of ET-743. 72 hours following the initial treatment, an MTS (3-(4,5-dimethylthiazol-2-yl)-5([…])-2-(4-sulfophenyl)-2H-tetrazolium) cytotoxicity assay was performed. Results were plotted as percent cellular viability versus ET-743 or Zalypsis® concentration (FIGS. 1a and 1b, respectively).

[2] = test system: SW620 colon carcinoma cells; test: MTS cytotoxicity assay, ET-743 with or without PARP inhibitor; format: cell-based; conditions: for IC50: 72 hours, MTS; for increased sensitization of cells to ET-743: SW620, PARP inhibitor (nicotinamide 10 mM or NU1025 100 μM) plus ET-743 versus ET-743 alone
Method: Four hours later, media containing ET-743 and the PARP inhibitor was washed out and replaced with another fixed dose of PARP inhibitor. Finally, 4 hours later, a final fixed dose of PARP inhibitor was added. 72 hours following the initial treatment, an MTS cytotoxicity assay was performed.

PARP = PARP (Homo sapiens, UniProt P09874); conditions: cited from earlier work
Chain of PARP (P09874 whole entry): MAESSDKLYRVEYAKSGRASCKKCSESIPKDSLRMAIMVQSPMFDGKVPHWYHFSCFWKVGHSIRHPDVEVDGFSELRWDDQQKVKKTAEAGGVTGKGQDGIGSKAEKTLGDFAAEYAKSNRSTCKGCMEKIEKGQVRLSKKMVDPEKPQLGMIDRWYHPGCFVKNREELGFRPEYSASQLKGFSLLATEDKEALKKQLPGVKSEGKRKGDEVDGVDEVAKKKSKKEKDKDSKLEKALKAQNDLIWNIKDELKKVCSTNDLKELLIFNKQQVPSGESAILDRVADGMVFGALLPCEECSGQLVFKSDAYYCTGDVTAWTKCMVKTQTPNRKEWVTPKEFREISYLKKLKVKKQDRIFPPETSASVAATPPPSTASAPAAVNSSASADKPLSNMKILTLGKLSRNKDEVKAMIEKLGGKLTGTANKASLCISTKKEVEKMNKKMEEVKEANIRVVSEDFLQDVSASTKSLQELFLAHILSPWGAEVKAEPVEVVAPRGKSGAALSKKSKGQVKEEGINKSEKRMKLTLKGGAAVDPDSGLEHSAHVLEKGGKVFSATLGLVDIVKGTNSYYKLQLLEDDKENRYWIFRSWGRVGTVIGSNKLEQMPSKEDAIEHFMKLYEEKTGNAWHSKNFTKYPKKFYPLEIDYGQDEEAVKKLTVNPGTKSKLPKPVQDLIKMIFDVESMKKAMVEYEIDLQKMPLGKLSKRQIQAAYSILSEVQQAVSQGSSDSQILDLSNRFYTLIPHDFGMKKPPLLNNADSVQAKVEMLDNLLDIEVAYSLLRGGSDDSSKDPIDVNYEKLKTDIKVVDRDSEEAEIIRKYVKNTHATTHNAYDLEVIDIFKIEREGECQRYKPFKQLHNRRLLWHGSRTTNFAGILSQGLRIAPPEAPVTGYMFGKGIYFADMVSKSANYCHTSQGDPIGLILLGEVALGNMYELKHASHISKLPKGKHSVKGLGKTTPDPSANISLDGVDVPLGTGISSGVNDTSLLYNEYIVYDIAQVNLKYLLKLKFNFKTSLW

Compound: COc1cc2c(cc1O)CCN[C@]21CS[C@@H]2c3c(OC(C)=O)c(C)c4c(c3[C@H](COC1=O)N1[C@@H]2[C@H]2c3c(cc(C)c(OC)c3O)C[C@@H]([C@@H]1O)N2C)OCO4 [ET-743, Ecteinascidin-743]
- increase in cellular sensitivity on loss of PARP-1 [1]: ~30 fold
- IC50 ([2]; Homo sapiens, SW-620, SW620, ET-743 alone, NU1025 experiment, read-out: IC50 ET-743 alone (FIG. 2b)): 1.8 nM
- IC50 ([2]; Homo sapiens, SW-620, SW620, ET-743 alone, nicotinamide experiment, read-out: IC50 ET-743 alone (FIG. 2a)): 2 nM
- IC50 ([2]; Homo sapiens, SW-620, SW620, NU1025 100 μM, 2 hour pre-treatment and repeated fixed doses, read-out: IC50 ET-743 in combination with NU1025 (FIG. 2b)): 0.37 nM
- IC50 ([2]; Homo sapiens, SW-620, SW620, nicotinamide 10 mM, 2 hour pre-treatment and repeated fixed doses, read-out: IC50 ET-743 in combination with nicotinamide (FIG. 2a)): 0.41 nM

Compound: Cc1nc2c(O)cccc2c(=O)[nH]1 [NU1025]
- potency as PARP inhibitor relative to nicotinamide (PARP): up to 1,000 times
- cytotoxicity, PARP inhibitor treatment alone ([2]; SW620, NU1025 alone (100 μM), versus untreated cells): no increased level of cytotoxicity above the untreated cells
- increased sensitization of cells to ET-743 [2]: 4.8 fold

Compound: COc1c(C)cc2c(c1O)[C@@H]1[C@@H]3Cc4c(OC(C)=O)c(C)c5c(c4[C@H](CNC(=O)/C=C/c4cccc(C(F)(F)F)c4)N3[C@@H](O)[C@H](C2)N1C)OCO5 [Zalypsis®]
- increase in cellular sensitivity on loss of PARP-1 [1]: 110 fold

Compound: NC(=O)c1cccnc1 [nicotinamide]
- inhibition at 10000 µM ([2]; Homo sapiens, SW-620, SW620, nicotinamide alone (10 mM), read-out: cell death, PARP inhibitor treatment alone): ~20%
- increased sensitization of cells to ET-743 [2]: 4.9 fold
